Columns and labels:
PIM1 = PIM1 (Homo sapiens, UniProt P11309); test: Pim1 ATP depletion assay; type: biochemical; conditions: 20 μM ATP, 2.5 nM PIM1
Experimental: The activity of PIM1 is measured using a luciferase-luciferin based ATP detection reagent to quantify ATP depletion resulting from kinase-catalyzed phosphoryl transfer to a peptide substrate. Compounds to be tested are dissolved in 100% DMSO and directly distributed into white 384-well plates at 0.5 μl per well. To start the reaction, 10 μl of 5 nM Pim1 kinase and 80 μM BAD peptide (RSRHSSYPAGT-OH) in assay buffer (50 mM HEPES pH 7.5, 5 mM MgCl2, 1 mM DTT, 0.05% BSA) is added into each well. After 15 minutes, 10 μl of 40 μM ATP in assay buffer is added. Final assay concentrations are 2.5 nM PIM1, 20 μM ATP, 40 μM BAD peptide and 2.5% DMSO. The reaction is performed until approximately 50% of the ATP is depleted, then stopped with the addition of 20 μl KinaseGlo Plus (Promega Corporation) solution. The stopped reaction is incubated for 10 minutes and the remaining ATP detected via luminescence on the Victor2 (Perkin Elmer). […] IC50, the half maximal inhibitory concentration, represents the concentration of a test compound that is required for 50% inhibition of its target in vitro.

PIM2 = PIM2 (Homo sapiens, UniProt Q9P1W9); test: Pim2 ATP depletion assay; type: biochemical; conditions: 4 μM ATP, 5 nM PIM2
Chain of PIM2 (Q9P1W9 whole entry): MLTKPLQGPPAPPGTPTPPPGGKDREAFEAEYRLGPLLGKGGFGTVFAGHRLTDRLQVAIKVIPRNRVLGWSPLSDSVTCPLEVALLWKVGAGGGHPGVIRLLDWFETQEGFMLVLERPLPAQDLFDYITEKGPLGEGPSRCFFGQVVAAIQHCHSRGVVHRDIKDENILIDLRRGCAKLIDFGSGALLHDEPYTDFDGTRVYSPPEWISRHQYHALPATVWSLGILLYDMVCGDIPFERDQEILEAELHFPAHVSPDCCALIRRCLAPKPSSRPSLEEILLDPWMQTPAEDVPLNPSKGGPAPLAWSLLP
Experimental: The activity of PIM2 is measured using a luciferase-luciferin based ATP detection reagent to quantify ATP depletion resulting from kinase-catalyzed phosphoryl transfer to a peptide substrate. Compounds to be tested are dissolved in 100% DMSO and directly distributed into white 384-well plates at 0.5 μl per well. To start the reaction, 10 μl of 10 nM Pim2 kinase and 20 μM BAD peptide (RSRHSSYPAGT-OH) in assay buffer (50 mM HEPES pH 7.5, 5 mM MgCl2, 1 mM DTT, 0.05% BSA) is added into each well. After 15 minutes, 10 μl of 8 μM ATP in assay buffer is added. Final assay concentrations are 5 nM PIM2, 4 μM ATP, 10 μM BAD peptide and 2.5% DMSO. The reaction is performed until approximately 50% of the ATP is depleted, then stopped with the addition of 20 μl KinaseGlo Plus (Promega Corporation) solution. The stopped reaction is incubated for 10 minutes and the remaining ATP detected via luminescence on the Victor2 (Perkin Elmer).

PIM3 = PIM3 (Homo sapiens, UniProt Q86V86); test: Pim3 ATP depletion assay; type: biochemical; conditions: 40 μM ATP
Experimental: The activity of PIM3 is measured using a luciferase-luciferin based ATP detection reagent to quantify ATP depletion resulting from kinase-catalyzed phosphoryl transfer to a peptide substrate. Compounds to be tested are dissolved in 100% DMSO and directly distributed into white 384-well plates at 0.5 μl per well. To start the reaction, 10 μl of 10 nM Pim3 kinase and 200 μM BAD peptide (RSRHSSYPAGT-OH) in assay buffer (50 mM HEPES pH 7.5, 5 mM MgCl2, 1 mM DTT, 0.05% BSA) is added into each well. After 15 minutes, 10 μl of 80 μM ATP in assay buffer is added. Final assay concentrations are 5 nM PIM1, 40 μM ATP, 100 μM BAD peptide and 2.5% DMSO. The reaction is performed until approximately 50% of the ATP is depleted, then stopped by the addition of 20 μl KinaseGlo Plus (Promega Corporation) solution. The stopped reaction is incubated for 10 minutes and the remaining ATP detected via luminescence on the Victor2 (Perkin Elmer).

KMS11 cells = test: Cell proliferation assay (CellTiter-Glo); type: cell-based; conditions: KMS-11, 72 h; KMS11 human myeloma cell line, 3 days
Experimental: KMS11 (human myeloma cell line), were cultured in IMDM supplemented with 10% FBS, sodium pyruvate and antibiotics. Cells were plated in the same medium at a density of 2000 cells per well into 96 well tissue culture plates, with outside wells vacant, on the day of assay. MM1.s (human myeloma cell line), were cultured in RPMI1640 supplemented with 10% FBS, sodium pyruvate and antibiotics. Cells were plated in the same medium at a density of 5000 cells per well into 96 well tissue culture plates, with outside wells vacant, on the day of assay.
Test compounds supplied in DMSO were diluted into DMSO at 500 times the desired final concentrations before dilution into culture media to 2 times final concentrations. Equal volumes of 2× compounds were added to the cells in 96 well plates and incubated at 37° C. for 3 days.
After 3 days plates were equilibrated to room temperature and equal volume of CellTiter-Glow Reagent (Promega) was added to the culture wells. The plates were agitated briefly and luminescent signal was measured with luminometer. The percent inhibition of the signal seen in cells treated with DMSO alone vs. cells treated with control compound was calculated and used to determine EC50 values (i.e., the concentration of a test compound that is required to obtain 50% of the maximum effect in the cells) for tested compounds, as shown in Example 41.

Chain of PIM1 (P11309 whole entry): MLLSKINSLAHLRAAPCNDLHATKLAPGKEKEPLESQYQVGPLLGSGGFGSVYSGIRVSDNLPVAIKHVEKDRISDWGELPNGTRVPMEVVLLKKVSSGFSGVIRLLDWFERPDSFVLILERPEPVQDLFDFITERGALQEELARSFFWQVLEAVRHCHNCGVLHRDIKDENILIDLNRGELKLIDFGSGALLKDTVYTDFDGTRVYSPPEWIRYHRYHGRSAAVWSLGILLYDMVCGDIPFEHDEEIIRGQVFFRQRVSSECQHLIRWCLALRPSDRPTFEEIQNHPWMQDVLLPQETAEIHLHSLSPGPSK

Q: Which results are given for `Nc1ccc(-c2cc(C(=O)Nc3ccccc3)ccc2F)nc1-c1cc2c(N3CCC[C@H](N)C3)ccnc2cn1` [Example 12, (S)-3-(5-amino-6-(4-(3-aminopiperidin-1-yl)-1,7-naphthyridin-6-yl)pyridin-2-yl)-4-fluoro-N-phenylbenzamide]?
A: IC50 (PIM1): 9 nM; IC50 (PIM2): 98 nM; IC50 (PIM3): 21 nM; EC50 (KMS11 cells): 4100 nM

Q: Which results are given for `CS(=O)(=O)c1ccc(-c2ccc(N)c(-c3cc4c(N5CCC[C@H](N)C5)ccnc4cn3)n2)cc1` [Example 24, (S)-2-(4-(3-aminopiperidin-1-yl)-1,7-naphthyridin-6-yl)-6-(4-(methylsulfonyl)phenyl)pyridin-3-amine]?
A: IC50 (PIM1): 2 nM; IC50 (PIM2): 34 nM; IC50 (PIM3): 7 nM; EC50 (KMS11 cells): 1200 nM

Q: For `N[C@H]1CCCN(c2ccnc3ccc(-c4nccc(-c5nccs5)n4)cc23)C1` [Example 28, (S)-1-(6-(4-(thiazol-2-yl)pyrimidin-2-yl)quinolin-4-yl)piperidin-3-amine], which IC50 (PIM1) is on record?
A: The IC50 was 7 nM.

Q: And the IC50 (PIM2)?
A: Its IC50 is 68 nM.

Q: And the IC50 (PIM3)?
A: The IC50 was 7 nM.

Q: And the EC50 (KMS11 cells)?
A: The EC50 was 770 nM.

Q: Which results are given for `Nc1ccc(-c2ccccc2F)nc1-c1cc2c(N3CCC[C@H](N)C3)ccnc2cn1` [Example 11, (S)-2-(4-(3-aminopiperidin-1-yl)-1,7-naphthyridin-6-yl)-6-(2-fluorophenyl)pyridin-3-amine]?
A: IC50 (PIM1): 2 nM; IC50 (PIM2): 59 nM; IC50 (PIM3): 3 nM; EC50 (KMS11 cells): 5200 nM

Q: `Nc1cnc(-c2ccccc2F)nc1-c1cc2c(N3CCC[C@H](N)C3)ccnc2cn1` [Example 6, (S)-4-(4-(3-aminopiperidin-1-yl)-1,7-naphthyridin-6-yl)-2-(2-fluorophenyl)pyrimidin-5-amine] was tested. Which IC50 (PIM1) did it give?
A: Its IC50 is 4 nM.

Q: And the IC50 (PIM2)?
A: Its IC50 is 59 nM.

Q: And the IC50 (PIM3)?
A: The IC50 was 3 nM.

Q: And the EC50 (KMS11 cells)?
A: The EC50 was 1800 nM.

Q: With `Nc1ccc(-c2cc(C(=O)NC3CCCCC3)ccc2F)nc1-c1cc2c(N3CCC[C@H](N)C3)ccnc2cn1` [Example 15, (S)-3-(5-amino-6-(4-(3-aminopiperidin-1-yl)-1,7-naphthyridin-6-yl)pyridin-2-yl)-N-cyclohexyl-4-fluorobenzamide] as the compound, how does the IC50 (PIM1) read?
A: The IC50 was 9 nM.

Q: What about the IC50 (PIM2) of the same compound?
A: Its IC50 is 74 nM.

Q: What about the IC50 (PIM3) of the same compound?
A: Its IC50 is 22 nM.

Q: And the EC50 (KMS11 cells)?
A: The EC50 was 3100 nM.

Q: For `CC(C)NC(=O)c1ccc(F)c(-c2ccc(N)c(-c3cc4c(N5CCC[C@H](N)C5)ccnc4cn3)n2)c1` [Example 10, (S)-3-(5-amino-6-(4-(3-aminopiperidin-1-yl)-1,7-naphthyridin-6-yl)pyridin-2-yl)-4-fluoro-N-isopropylbenzamide], which IC50 (PIM1) is on record?
A: The IC50 was 3 nM.

Q: And the IC50 (PIM2)?
A: The IC50 was 48 nM.

Q: What about the IC50 (PIM3) of the same compound?
A: Its IC50 is 13 nM.

Q: What about the EC50 (KMS11 cells) of the same compound?
A: Its EC50 is 3900 nM.

Q: Which results are given for `Nc1ccc(-c2c(F)cccc2F)nc1-c1cc2c(N3CCC[C@@H](N)C3)ccnc2cn1` [Example 7, (R)-2-(4-(3-aminopiperidin-1-yl)-1,7-naphthyridin-6-yl)-6-(2,6-difluorophenyl)pyridin-3-amine]?
A: IC50 (PIM1): 5 nM; IC50 (PIM2): 24 nM; IC50 (PIM3): 7 nM; EC50 (KMS11 cells): 2800 nM

Q: `Nc1ccc(-c2nccs2)nc1-c1cc2c(N3CCC[C@H](N)C3)ccnc2cn1` [Example 5, (S)-2-(4-(3-aminopiperidin-1-yl)-1,7-naphthyridin-6-yl)-6-(thiazol-2-yl)pyridin-3-amine] was tested. Which IC50 (PIM1) did it give?
A: Its IC50 is 1 nM.

Q: What about the IC50 (PIM2) of the same compound?
A: Its IC50 is 9 nM.

Q: And the IC50 (PIM3)?
A: Its IC50 is 4 nM.

Q: And the EC50 (KMS11 cells)?
A: The EC50 was 840 nM.

Q: For `Nc1ccc(-c2cccs2)nc1-c1cc2c(N3CCC[C@H](N)C3)ccnc2cn1` [Example 13, (S)-2-(4-(3-aminopiperidin-1-yl)-1,7-naphthyridin-6-yl)-6-(thiophen-2-yl)pyridin-3-amine], which IC50 (PIM1) is on record?
A: The IC50 was 3 nM.

Q: What about the IC50 (PIM2) of the same compound?
A: The IC50 was 54 nM.

Q: And the IC50 (PIM3)?
A: Its IC50 is 4 nM.

Q: What about the EC50 (KMS11 cells) of the same compound?
A: The EC50 was 4700 nM.

Q: With `Nc1ccc(-c2ccc(S(N)(=O)=O)cc2)nc1-c1cc2c(N3CCC[C@H](N)C3)ccnc2cn1` [Example 23, (S)-4-(5-amino-6-(4-(3-aminopiperidin-1-yl)-1,7-naphthyridin-6-yl)pyridin-2-yl)benzenesulfonamide] as the compound, how does the IC50 (PIM1) read?
A: The IC50 was 2 nM.

Q: And the IC50 (PIM2)?
A: Its IC50 is 34 nM.

Q: What about the IC50 (PIM3) of the same compound?
A: Its IC50 is 7 nM.

Q: And the EC50 (KMS11 cells)?
A: Its EC50 is 7800 nM.

Q: How did the IC50 (PIM1) turn out when `Nc1ccc(-c2ccccc2)nc1-c1cc2c(N3CCC[C@H](N)C3)ccnc2cn1` [Example 20, (S)-2-(4-(3-aminopiperidin-1-yl)-1,7-naphthyridin-6-yl)-6-phenylpyridin-3-amine] was run?
A: The IC50 was 3 nM.

Q: And the IC50 (PIM2)?
A: The IC50 was 62 nM.

Q: What about the IC50 (PIM3) of the same compound?
A: The IC50 was 4 nM.

Q: And the EC50 (KMS11 cells)?
A: Its EC50 is 4200 nM.

Q: What does the source list for `C[C@@H]1C[C@H](N)CN(c2ccnc3ccc(-c4cccc(-c5nccs5)n4)cc23)C1` [Example 31, (3S,5R)-5-methyl-1-(6-(6-(thiazol-2-yl)pyridin-2-yl)quinolin-4-yl)piperidin-3-amine]?
A: IC50 (PIM1): 5 nM; IC50 (PIM2): 12 nM; IC50 (PIM3): 6 nM; EC50 (KMS11 cells): 790 nM

Q: Which results are given for `N[C@H]1CCCN(c2ccnc3cnc(-c4cccc(-c5nccs5)n4)cc23)C1` [Example 25, (S)-1-(6-(6-(thiazol-2-yl)pyridin-2-yl)-1,7-naphthyridin-4-yl)piperidin-3-amine]?
A: IC50 (PIM1): 6 nM; IC50 (PIM2): 60 nM; IC50 (PIM3): 7 nM; EC50 (KMS11 cells): 590 nM

Q: With `Nc1ccc(-c2nccs2)nc1-c1cc2c(N3CCC[C@H](N)C3)c(F)cnc2cn1` [Example 1, (S)-2-(4-(3-aminopiperidin-1-yl)-3-fluoro-1,7-naphthyridin-6-yl)-6-(thiazol-2-yl)pyridin-3-amine] as the compound, how does the IC50 (PIM1) read?
A: Its IC50 is 2 nM.

Q: What about the IC50 (PIM2) of the same compound?
A: The IC50 was 40 nM.

Q: What about the IC50 (PIM3) of the same compound?
A: The IC50 was 7 nM.

Q: And the EC50 (KMS11 cells)?
A: The EC50 was 870 nM.

Source: patent US8735424B2 (Novartis AG, priority 2008, dated 2014)
